The values below come from ChEMBL document CHEMBL1138106, “The discovery of a potent and selective lethal factor inhibitor for adjunct therapy of anthrax infection” (Bioorg Med Chem Lett, 2006).

Each structure is given as a SMILES string. Converted amounts (≈) assume the structure as drawn. Where only a bound is given, the exact number is not on record here.

The nature of series [1]: Clearance in Dutch Belted rabbit at 2 mg/kg, iv. The series is classed as ADME, organism-based, Oryctolagus cuniculus. Further details: dose 2 mg/kg, route intravenous. Conditions: in vivo.
Series [2] can be described thus: Bioavailability in Dutch Belted rabbit […], po. Format: ADME, organism-based, Oryctolagus cuniculus. The following applies: in vivo.
Series [3] in a line: Bioavailability in Beagle dog […], po. Format: ADME, organism-based, Canis lupus familiaris. The following applies: in vivo.
Series [4] in a line: Solubility in water. Format: physicochemical.
The nature of series [5]: Bioavailability in BALB/c mice […], po. The series is classed as ADME, organism-based. Conditions: mouse, in vivo.
For series [6], the target named is Matrix metalloproteinase-14 (Homo sapiens, UniProt P50281). The experiment in a line: Inhibition of MMP14.
Series [7] can be described thus: Tmax in Sprague-Dawley rat at 1 mg/kg, iv. Further details: dose 1 mg/kg, route intravenous. Format: ADME, organism-based. The following applies: in vivo.
The nature of series [8]: Clearance in New Zealand White rabbit at 5 mg/kg, iv. Format: ADME, organism-based, Oryctolagus cuniculus. Further details: dose 5 mg/kg, route intravenous. The following applies: in vivo.
A short description of series [9]: Bioavailability in Sprague-Dawley rat […], po. The series is classed as ADME, organism-based. The following applies: in vivo.
Series [10] in a line: Half life in Sprague-Dawley rat at 1 mg/kg, iv. Further details: dose 1 mg/kg, route intravenous. The series is classed as ADME, organism-based. Conditions: in vivo.
Series [11] in a line: Cmax in Dutch Belted rabbit at 2 mg/kg, iv. The following applies: in vivo. The series is classed as ADME, organism-based, Oryctolagus cuniculus. Also noted: dose 2 mg/kg, route intravenous.
Series [12] can be described thus: Tmax in rhesus monkey at 1 mg/kg, iv. The series is classed as ADME, organism-based, Macaca mulatta. Also noted: dose 1 mg/kg, route intravenous. The following applies: in vivo.
Series [13] is described as follows: Volume of distribution in BALB/c mice at 10 mg/kg, iv. Conditions: mouse, in vivo, read-out: Vdss. Format: ADME, organism-based. Further details: dose 10 mg/kg, route intravenous.
Series [14] in a line: Half life in New Zealand White rabbit at 5 mg/kg, iv. Format: ADME, organism-based, Oryctolagus cuniculus. Also noted: dose 5 mg/kg, route intravenous. Conditions: in vivo.
Series [15] deals with T1, Endothelin-converting enzyme 1 (Homo sapiens) (UniProt P42892).
T1 sequence (whole entry): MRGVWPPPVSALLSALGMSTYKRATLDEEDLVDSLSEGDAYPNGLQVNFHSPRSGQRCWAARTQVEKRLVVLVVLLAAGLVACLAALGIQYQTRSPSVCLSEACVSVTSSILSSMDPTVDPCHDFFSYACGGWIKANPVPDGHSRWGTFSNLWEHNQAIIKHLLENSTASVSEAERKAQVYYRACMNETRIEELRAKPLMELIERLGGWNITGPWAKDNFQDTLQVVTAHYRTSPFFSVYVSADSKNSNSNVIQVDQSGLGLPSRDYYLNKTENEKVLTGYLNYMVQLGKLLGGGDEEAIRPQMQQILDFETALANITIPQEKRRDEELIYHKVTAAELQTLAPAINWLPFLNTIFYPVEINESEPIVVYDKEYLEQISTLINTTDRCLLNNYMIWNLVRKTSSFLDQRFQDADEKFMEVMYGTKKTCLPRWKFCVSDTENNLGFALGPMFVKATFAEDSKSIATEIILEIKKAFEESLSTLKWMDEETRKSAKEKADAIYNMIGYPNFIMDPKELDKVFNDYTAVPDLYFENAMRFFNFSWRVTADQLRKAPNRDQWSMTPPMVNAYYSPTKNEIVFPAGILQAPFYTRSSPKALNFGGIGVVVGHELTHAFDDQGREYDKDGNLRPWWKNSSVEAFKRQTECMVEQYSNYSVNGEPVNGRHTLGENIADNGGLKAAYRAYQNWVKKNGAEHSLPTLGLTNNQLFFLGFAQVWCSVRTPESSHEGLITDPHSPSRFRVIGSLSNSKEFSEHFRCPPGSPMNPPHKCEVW
Kind of series: Inhibition of ECE at 10 uM.

Series [16] is described as follows: Half life in Beagle dog at 1 mg/kg, iv. Format: ADME, organism-based, Canis lupus familiaris. Further details: dose 1 mg/kg, route intravenous. Conditions: in vivo.
Series [17] in a line: Clearance in Guinea pig at 2 mg/kg, iv. Format: ADME, organism-based, Cavia porcellus. Conditions: in vivo. Further details: dose 2 mg/kg, route intravenous.
Series [18] is described as follows: Volume of distribution in Sprague-Dawley rat at 1 mg/kg, iv. The series is classed as ADME, organism-based. Further details: dose 1 mg/kg, route intravenous. The following applies: in vivo, read-out: Vdss.
Series [19] can be described thus: Volume of distribution in Beagle dog at 1 mg/kg, iv. The series is classed as ADME, organism-based, Canis lupus familiaris. The following applies: in vivo, read-out: Vdss. Further details: dose 1 mg/kg, route intravenous.
Series [20] in a line: Half life in BALB/c mice at 10 mg/kg, iv. The following applies: mouse, in vivo. Also noted: dose 10 mg/kg, route intravenous. Format: ADME, organism-based.
A short description of series [21]: Clearance in Beagle dog at 1 mg/kg, iv. The series is classed as ADME, organism-based, Canis lupus familiaris. The following applies: in vivo. Further details: dose 1 mg/kg, route intravenous.
Series [22] in a line: Clearance in Sprague-Dawley rat at 1 mg/kg, iv. Also noted: dose 1 mg/kg, route intravenous. The following applies: in vivo. Format: ADME, organism-based.

What is called clearance is the rate of elimination divided by the concentration. The bioavailability is the share of a dose that reaches the circulation, judged against a reference dose that is usually intravenous. One may read the solubility as the concentration that dissolves in the medium under given conditions. As usually defined, the IC50 is the concentration at which inhibition is half-maximal. As usually defined, the Tmax is the time at which the peak concentration occurs. For orientation: half-life means how long it takes for the measured level to halve. By Cmax is commonly meant the highest concentration seen after dosing. Usually inhibition stands for how much of the control response was suppressed. `Cc1cc(S(=O)(=O)N[C@@H](C(=O)NO)C2CCOCC2)ccc1F`: the clearance is 14 mL/min/kg in series [1]; 35 mL/min/kg in series [8]; 24 mL/min/kg in [17]; 15 mL/min/kg in [21]; 80 mL/min/kg in series [22]. Also, the bioavailability was 0.5% in [2], 57% in series [3], 20% in series [5] and 51% in series [9]. In series [4], the concentration in solution (solubility) came to 2500 µg/mL (≈ 7.22 mM). Besides, the IC50 in series [6] is 6.5 µM. For the same molecule, the Tmax in series [7] came to 0.3 h; in [12], 1.3 h. Also, the half-life was 1.4 h in [10], 2.5 h in series [14], 4.7 h in [16] and 0.4 h in series [20]. The Cmax in [11] was determined as 12 nM. Further, the Vd in series [13] was 1 L/kg; in [18] it was 3.9 L/kg; in [19], 2.4 L/kg. The inhibition in series [15] is below 10%.
